According to paper PMC5972072 (Bioorganic chemistry, 2018):
“Also recorded” adds a separate entry of the source. Values belong to the compound of their own block, whether it stands above or below them.

Legend:
HCT116 cells [1] = experiment: Antiproliferative activity, CellTiter-Blue viability; type: cell-based; conditions: for antiproliferative activity (in words): HCT116, 10 μM, 72 h; for IC50: Homo sapiens, HCT-116, 72 h, read-out: IC50 against HCT116
HCT116 cells [2] = experiment: Cell cycle analysis, propidium iodide staining with flow cytometry; type: cell-based
HeLa cells = experiment: Antiproliferative activity, CellTiter-Blue viability; type: cell-based; conditions: 72 h; for antiproliferative activity (in words): 10 μM; for IC50: Homo sapiens, read-out: IC50 against HeLa
haspin kinase [3] = biological target: T1, haspin kinase (Homo sapiens, UniProt Q8TF76); experiment: Haspin kinase activity, ADP-Glo kinase assay, single concentration; type: biochemical; conditions: for inhibition at 0.1 µM: read-out: inhibition of haspin's enzymatic activity; for haspin inhibition (in words): 100 nM compound, 3 h, Figure 2
T1 sequence (Q8TF76 1-798): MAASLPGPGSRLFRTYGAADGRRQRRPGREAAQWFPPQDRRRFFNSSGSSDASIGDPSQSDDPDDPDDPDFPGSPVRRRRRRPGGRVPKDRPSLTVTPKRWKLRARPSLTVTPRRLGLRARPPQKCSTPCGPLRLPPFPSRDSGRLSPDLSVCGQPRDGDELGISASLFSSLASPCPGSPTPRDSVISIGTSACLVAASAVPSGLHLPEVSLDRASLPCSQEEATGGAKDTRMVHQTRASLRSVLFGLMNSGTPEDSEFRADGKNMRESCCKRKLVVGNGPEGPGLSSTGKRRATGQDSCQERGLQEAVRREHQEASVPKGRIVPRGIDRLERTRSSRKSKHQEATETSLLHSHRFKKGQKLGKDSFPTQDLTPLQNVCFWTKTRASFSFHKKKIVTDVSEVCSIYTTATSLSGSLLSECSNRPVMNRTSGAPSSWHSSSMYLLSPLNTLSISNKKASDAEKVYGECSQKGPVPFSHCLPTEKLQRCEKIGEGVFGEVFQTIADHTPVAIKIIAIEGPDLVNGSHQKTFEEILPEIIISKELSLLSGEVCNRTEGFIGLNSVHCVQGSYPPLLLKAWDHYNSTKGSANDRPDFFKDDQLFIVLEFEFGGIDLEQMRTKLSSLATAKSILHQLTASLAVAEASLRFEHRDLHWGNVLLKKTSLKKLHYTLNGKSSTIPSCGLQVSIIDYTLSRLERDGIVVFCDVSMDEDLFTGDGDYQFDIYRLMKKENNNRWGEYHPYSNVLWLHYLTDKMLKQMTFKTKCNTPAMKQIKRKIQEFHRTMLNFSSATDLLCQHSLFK

[4] = test system: caspase 3/7 in HCT116 cells; experiment: Caspase 3/7 fluorescence assay; conditions: HCT116, after 72 hours, normalized to DMSO
A375 cells = experiment: Antiproliferative activity, CellTiter-Blue viability; type: cell-based; conditions: A375, 10 μM, 72 h
haspin kinase [5] = biological target: T1, haspin kinase; experiment: Haspin dose-response
HCT116 and HeLa cells = HCT116 and HeLa cells ref 13; cited from earlier work

Compound: Oc1ccc(-c2nc3ccc4[nH]ncc4c3c3c2CCCC3)c(F)c1 [HSD972, 3-Fluoro-4-(8,9,10,11-tetrahydro-3H-pyrazolo[4,3-a]phenanthridin-7-yl)phenol]
antiproliferative activity (in words) (HCT116 cells [1]): potent antiproliferative activities
IC50 (HCT116 cells [1]): 2700 nM
cells in G2 phase (HCT116 cells [2]; HCT116, 13.5 μM (5X IC50), 24 h, DMSO 16.2%): 59.3%
effect on cell cycle distribution (in words) (HCT116 cells [2]; HCT116, 5X IC50, 24 h, compared to DMSO): population of cells in the G2/M phase was higher
antiproliferative activity (in words) (HeLa cells): potent antiproliferative activities
IC50 (HeLa cells): 4800 nM
inhibition at 0.1 µM (haspin kinase [3]): > 90%
caspase 3/7 activity (in words) [4]: increased the activity of caspase 3/7

Compound: N#Cc1n[nH]c2ccc3nc(-c4ccc(O)cc4)c4c(c3c12)CCCC4 [Compound 7, 7-(4-Hydroxyphenyl)-8,9,10,11-tetrahydro-3H-pyrazolo[4,3-a]phenanthridine-1-carbonitrile]
antiproliferative activity (in words) (HCT116 cells [1]): performed poorly
antiproliferative activity (in words) (HeLa cells): performed poorly
haspin inhibition (in words) (haspin kinase [3]): no inhibitory activity; also recorded: did not inhibit haspin; also recorded: poor haspin inhibitors
antiproliferative activity (in words) (A375 cells): performed poorly

Compound: Nc1ncc(-c2nc3ccc4[nH]ncc4c3c3c2CCCC3)cn1 [Compound 18, 5-(8,9,10,11-Tetrahydro-3H-pyrazolo[4,3-a]phenanthridin-7-yl)pyrimidin-2-amine]
haspin inhibition (in words) (haspin kinase [3]): slightly less active against haspin

Compound: Nc1ccc(-c2nc3ccc4[nH]ncc4c3c3c2CCCC3)cn1 [Compound 17, 5-(8,9,10,11-Tetrahydro-3H-pyrazolo[4,3-a]phenanthridin-7-yl)pyridin-2-amine]
IC50 (haspin kinase [5]): 45 nM
haspin inhibition (in words) (haspin kinase [3]): did not affect haspin inhibition
inhibition at 0.1 µM (haspin kinase [3]): > 90%

Compound: CCCNc1ccc2ncc(-c3ccc4[nH]ncc4c3)n2n1 [CHR-6494]
apoptosis (in words) (HCT116 and HeLa cells): apoptosis
cell cycle arrest (in words) (HCT116 and HeLa cells): G2/M cell cycle arrest

Compound: Oc1ccc(-c2nc3c(ccc4cn[nH]c43)c3c2CCCC3)cc1 [Compound 19, 4-(6,7,8,9-Tetrahydro-3H-pyrazolo[4,3-c]phenanthridin-5-yl)phenol]
antiproliferative activity (in words) (HCT116 cells [1]): performed poorly
antiproliferative activity (in words) (HeLa cells): performed poorly
haspin inhibition (in words) (haspin kinase [3]): not as active against haspin than compound 1; also recorded: poor haspin inhibitors
antiproliferative activity (in words) (A375 cells): performed poorly

Compound: Oc1ccc(-c2nc3ccc4cn[nH]c4c3c3c2CCCC3)cc1 [Compound 20, 4-(8,9,10,11-Tetrahydro-1H-pyrazolo[3,4-a]phenanthridin-7-yl)phenol]
haspin inhibition (in words) (haspin kinase [3]): not as active against haspin than compound 1

Compound: Nc1ccc(-c2nc3ccc4[nH]ncc4c3c3c2CCCC3)cc1 [HSD929, 4-(8,9,10,11-Tetrahydro-3H-pyrazolo[4,3-a]phenanthridin-7-yl)aniline]
antiproliferative activity (in words) (HCT116 cells [1]): potent antiproliferative activities
IC50 (HCT116 cells [1]): 1680 nM
IC50 (haspin kinase [5]): 61 nM
antiproliferative activity (in words) (HeLa cells): potent antiproliferative activities
IC50 (HeLa cells): 3600 nM
haspin inhibition (in words) (haspin kinase [3]): potent inhibitors of haspin
haspin inhibition (in words) (haspin kinase [3]; listed as 16): did not affect haspin inhibition
inhibition at 0.1 µM (haspin kinase [3]): > 90%

More lines, main results first:

haspin inhibition (in words) (haspin kinase [3]): less active against haspin than HSD972
Compound: Oc1ccc(-c2nc3ccc4[nH]ncc4c3c3c2CCCC3)cc1F [Compound 8, 2-Fluoro-4-(8,9,10,11-tetrahydro-3H-pyrazolo[4,3-a]phenanthridin-7-yl)phenol]

haspin inhibition (in words) (haspin kinase [3]): decreased potency
Compound: Oc1ccc(-c2nc3ccc4[nH]ncc4c3c3c2CCCC3)c(F)c1F [Compound 21, 2,3-Difluoro-4-(8,9,10,11-tetrahydro-3H-pyrazolo[4,3-a]phenanthridin-7-yl)phenol]

haspin inhibition (in words) (haspin kinase [3]): poor haspin inhibitor
Compound: Oc1ccc(-c2nc3ccc4[nH]ncc4c3c3c2CCCC3)cn1 [Compound 12, 5-(8,9,10,11-Tetrahydro-3H-pyrazolo[4,3-a]phenanthridin-7-yl)pyridin-2-ol]
antiproliferative activity (in words) (HCT116 cells [1]): moderate antiproliferative activity
antiproliferative activity (in words) (HeLa cells): moderate antiproliferative activity
antiproliferative activity (in words) (A375 cells): moderate antiproliferative activity

haspin inhibition (in words) (haspin kinase [3]): decreased potency
Compound: Oc1cc(F)c(-c2nc3ccc4[nH]ncc4c3c3c2CCCC3)cc1F [Compound 10, 2,5-Difluoro-4-(8,9,10,11-tetrahydro-3H-pyrazolo[4,3-a]phenanthridin-7-yl)phenol]

haspin inhibition (in words) (haspin kinase [3]): good haspin inhibitor
Compound: Oc1ccc(-c2nc3ccc4[nH]ncc4c3c3c2CCCC3)cc1 [Compound 1, 4-(8,9,10,11-Tetrahydro-3H-pyrazolo[4,3-a]phenanthridin-7-yl)phenol]
antiproliferative activity (in words) (HCT116 cells [1]): did not have good anticancer activities
antiproliferative activity (in words) (HeLa cells): did not have good anticancer activities
antiproliferative activity (in words) (A375 cells): did not have good anticancer activities
